Experimental data as given in patent US20170010272A1, “RAPID PHENOTYPE TESTS FOR ANTI[…] SENSITIVITY AND RESISTANCE” (STC, UNM, priority 2014, published 2017).
Like-named read-outs stand apart in the source and are kept apart here.

Assays:
[1] = biological target: deazaflavin (F420) dependent nitroreductase (Ddn) (Mycobacterium tuberculosis, UniProt P9WP15); test: activation of nitroimidazoles to NO• by Ddn; type: biochemical; settings: for activation to NO• by Ddn: FIG. 2; for Ddn mediated production of ^15NO•: FIG. 4
[2] = oral pyrazinamide, metabolite pyrazinoic acid formed by host hepatic microsomal deamidase, cited from earlier work

Sequence of deazaflavin (F420) dependent nitroreductase (Ddn) (P9WP15 whole entry): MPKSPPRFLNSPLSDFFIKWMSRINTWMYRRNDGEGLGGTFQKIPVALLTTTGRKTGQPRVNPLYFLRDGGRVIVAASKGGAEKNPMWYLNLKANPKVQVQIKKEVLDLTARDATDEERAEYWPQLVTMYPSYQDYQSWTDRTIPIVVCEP

For `C[C@]1(COc2ccc(N3CCC(Oc4ccc(OC(F)(F)F)cc4)CC3)cc2)Cn2cc([N+](=O)[O-])nc2O1` [OPC67683], the “activation to NO• by Ddn” value [1] was “activation of PA824 and OPC67683 to NO• by Ddn”.
In the case of `O=[N+]([O-])c1cn2c(n1)OC[C@@H](OCc1ccc(OC(F)(F)F)cc1)C2` [PA824], the “activation to NO• by Ddn” value [1] is reported as “activation of PA824 and OPC67683 to NO• by Ddn”.
For `NC(=O)c1cnccn1` [PZA, pyrazinamide], the “time of peak POA (metabolite) levels after oral dosage” value [2] is given as ~6 h and the “time of peak POA (metabolite) levels after oral dosage” value ([2]; listed as pyrazinamide) is given as “around six”.
In the case of `CC1(COc2ccc(N3CCC(Oc4ccc(OC(F)(F)F)cc4)CC3)cc2)Cn2cc([15N+](=O)[O-])nc2O1` (stereo not drawn) [^15N-nitro-OPC67683], the “Ddn mediated production of ^15NO•” value [1] is reported as “Ddn mediated production of ^15NO•”.
With `O=[15N+]([O-])c1cn2c(n1)OC[C@@H](OCc1ccc(OC(F)(F)F)cc1)C2` [^15N-nitro-PA824] the “Ddn mediated production of ^15NO•” value [1] was “Ddn mediated production of ^15NO•”.
